Measured values reported in US7314861B2, “Melanin-concentrating hormone analogs” (priority 2001, dated 2008).
Where a SMILES comes first, the peptide text is derived from it. Bridges are numbered along the chain shown (N, C = ends). [ ]: non-standard residue; d: D form. The star is where a group is joined. Pentanoyl(5-guanidino) = NC(N)=NCCCCC(=O)*

Assays:
human MCH-R2 = human MCH-R2 (Homo sapiens, UniProt Q969V1); experiment: Aequorin bioluminescence functional assay, MCH-2R; settings: for EC50: MCH-2R EC50 (nM); for EC50 / MCH-2R Activation %: aequorin functional assay; for MCH-2R Activation %: % Activation at 10 μM; for selective activity at MCH-2R over MCH-1R: greater binding and/or activation at MCH-2R than at MCH-1R
Chain of human MCH-R2 (Q969V1 whole entry): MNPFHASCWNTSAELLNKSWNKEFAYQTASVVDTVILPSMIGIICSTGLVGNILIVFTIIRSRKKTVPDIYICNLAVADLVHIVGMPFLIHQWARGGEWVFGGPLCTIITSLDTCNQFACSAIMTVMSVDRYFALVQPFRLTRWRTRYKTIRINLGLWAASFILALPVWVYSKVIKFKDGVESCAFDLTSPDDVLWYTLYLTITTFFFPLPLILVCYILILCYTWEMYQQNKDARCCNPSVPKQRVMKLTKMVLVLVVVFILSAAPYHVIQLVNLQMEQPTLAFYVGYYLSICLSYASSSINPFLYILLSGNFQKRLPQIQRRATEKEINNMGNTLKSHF
Method: (§1) The aequorin bioluminescence assay can be used to measure the activity of G protein-coupled receptors that couple through the Gα protein subunit family consisting of Gq and G11. Such coupling leads to phospholipase C activation, intracellular calcium mobilization and protein kinase C activation.
(§2) Following approximately 40 hours of expression the apo-aequorin in the cells was charged for 4 hours with coelenterazine (10 μM) under reducing conditions (300 μM reduced glutathione) in ECB buffer (140 mM NaCl, 20 mM KCl, 20 mM HEPES-NaOH [pH=7.4], 5 mM glucose, 1 mM MgCl2, 1 mM CaCl2, 0.1 mg/ml bovine serum albumin).
(§3) The cells were harvested, washed once in ECB medium and resuspended to 500,000 cells/ml. 100 μl of cell suspension (corresponding to 5×10^4 cells) was then injected into the test plate containing MCH or MCH analogs, and the integrated light emission was recorded over 30 seconds, in 0.5 second units. 20 μL of lysis buffer (0.1% final Triton X-100 concentration) was then injected and the integrated light emission recorded over 10 seconds, in 0.5 second units. The “fractional response” values for each well were calculated by taking the ratio of the integrated response to the initial challenge to the total integrated luminescence including the Triton X-100 lysis response.

human MCH-1R = human MCH-1R (Homo sapiens, UniProt Q99705); experiment: Aequorin bioluminescence functional assay, MCH-1R; settings: for MCH-1R Activation %: % Activation at 10 μM, aequorin functional assay
Chain of human MCH-1R (Q99705 whole entry): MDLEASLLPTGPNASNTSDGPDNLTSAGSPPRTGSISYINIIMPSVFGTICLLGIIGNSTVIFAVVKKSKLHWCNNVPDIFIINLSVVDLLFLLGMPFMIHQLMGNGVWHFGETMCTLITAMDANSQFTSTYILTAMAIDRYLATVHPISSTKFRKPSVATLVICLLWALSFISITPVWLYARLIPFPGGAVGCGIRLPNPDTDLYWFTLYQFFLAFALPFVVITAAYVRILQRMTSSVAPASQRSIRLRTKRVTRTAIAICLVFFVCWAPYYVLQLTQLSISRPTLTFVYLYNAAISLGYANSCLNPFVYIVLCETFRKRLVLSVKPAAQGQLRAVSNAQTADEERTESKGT
Method: as §1, §2, §3

SMILES | MCH-2R Activation % (human MCH-R2; Table 1) | MCH-1R Activation % (human MCH-1R; Table 1) | selective activity at MCH-2R over MCH-1R (human MCH-R2) | other results
CSCC[C@@H]1NC(=O)[C@@H](NC(=O)[C@H](CCCNC(=N)N)NC(C)=O)CSSC[C@@H](C(N)=O)NC(=O)[C@@H]2CCCN2C(=O)[C@H](CCCNC(=N)N)NC(=O)[C@H](Cc2ccc(O)cc2)NC(=O)[C@H](C(C)C)NC(=O)[C@H](CCCCNC(=N)N)NC(=O)CNC(=O)[C@H](CC(C)C)NC1=O [compound 24] | 43% | 72% |  | EC50 (human MCH-R2; Table 1, 293-AEQ17 cells): > 10000 nM
CSCC[C@@H]1NC(=O)[C@@H](NC(=O)[C@H](CCCNC(=N)N)NC(=O)[C@H](CC(C)C)NC(=O)[C@H](CCSC)NC(=O)[C@H](CC(=O)O)NC(=O)[C@H](Cc2ccccc2)NC(=O)[C@@H](N)CC(=O)O)CSSC[C@@H](C(=O)N[C@@H](C)C(=O)N[C@@H](CCC(N)=O)C(=O)N[C@H](C(=O)O)C(C)C)NC(=O)[C@@H]2CCCN2C(=O)[C@H](CCCNC(=N)N)NC(=O)[C@H](Cc2ccc(O)cc2)NC(=O)[C@H](C(C)C)NC(=O)[C@H](CCCNC(=N)N)NC(=O)CNC(=O)[C@H](CC(C)C)NC1=O [compound 54] (H-DFDMLRCMLGRVYRPCAQV-OH; disulfide 7-16; N-terminus and C-terminus assumed) |  |  |  | MCH-2R Activation % (human MCH-R2; Table 3): 95%; MCH-1R Activation % (human MCH-1R; Table 3): 100%
CSCC[C@@H]1NC(=O)[C@@H](NC(C)=O)CSSC[C@@H](C(N)=O)NC(=O)[C@@H]2CCCN2C(=O)[C@H](CCCNC(=N)N)NC(=O)[C@H](Cc2ccc(O)cc2)NC(=O)[C@H](C(C)C)NC(=O)[C@H](CCCNC(=N)N)NC(=O)CNC(=O)[C@H](CC(C)C)NC1=O [compound 3] |  | 6.5% |  | 
CSCC[C@@H]1NC(=O)[C@@H](NC(=O)[C@H](CCCNC(=N)N)NC(C)=O)CSSC[C@@H](C(N)=O)NC(=O)[C@@H]2CCCN2C(=O)[C@H](CCCNC(=N)N)NC(=O)[C@H](Cc2ccc(O)cc2)NC(=O)[C@H](C(C)C)NC(=O)[C@H](CCCNC(=N)N)NC(=O)[C@@H](C)NC(=O)[C@H](CC(C)C)NC1=O [compound 13] | 103% | 40% | selectively active | EC50 (human MCH-R2; Table 1, 293-AEQ17 cells): 16 nM
CSCC[C@@H]1NC(=O)[C@@H](NC(=O)[C@H](CCCNC(=N)N)NC(=O)[C@H](CC(C)C)NC(=O)[C@H](CCSC)NC(=O)[C@H](CC(=O)O)NC(=O)[C@H](Cc2ccccc2)NC(=O)[C@H](C)N)CSSC[C@@H](C(=O)N[C@@H](Cc2c[nH]c3ccccc23)C(=O)N[C@@H](CCC(N)=O)C(=O)N[C@H](C(=O)O)C(C)C)NC(=O)[C@@H]2CCCN2C(=O)[C@H](CCCNC(=N)N)NC(=O)[C@H](Cc2ccc(O)cc2)NC(=O)[C@H](C(C)C)NC(=O)[C@H](CCCNC(=N)N)NC(=O)CNC(=O)[C@H](CC(C)C)NC1=O [compound 41] (H-AFDMLRCMLGRVYRPCWQV-OH; disulfide 7-16; N-terminus and C-terminus assumed) |  |  |  | MCH-2R Activation % (human MCH-R2; Table 3): 96%; MCH-1R Activation % (human MCH-1R; Table 3): 96%
CSCC[C@@H]1NC(=O)[C@@H](NC(=O)[C@H](CCCNC(=N)N)NC(C)=O)CSSC[C@@H](C(N)=O)NC(=O)[C@@H]2CCCN2C(=O)[C@H](CCCNC(=N)N)NC(=O)[C@H](Cc2ccc(O)cc2)NC(=O)[C@H](C(C)C)NC(=O)[C@H](CCCNC(=N)N)NC(=O)CNC(=O)[C@H](CC(C)C)NC1=O [compound 2] |  |  |  | MCH-1R Activation % (human MCH-1R; Table 2): 99%
CC(=O)N[C@@H](CCCNC(=N)N)C(=O)N[C@H]1CSSC[C@@H](C(N)=O)NC(=O)[C@@H]2CCCN2C(=O)[C@H](CCCNC(=N)N)NC(=O)[C@H](Cc2ccc(O)cc2)NC(=O)[C@H](C(C)C)NC(=O)[C@H](CCCCNC(=N)N)NC(=O)[C@@H](C)NC(=O)[C@H](CC(C)C)NC(=O)[C@H](C)NC1=O [compound 38] | 49% | 20% |  | EC50 (human MCH-1R): > 10 µM
CSCC[C@@H]1NC(=O)[C@@H](NC(=O)[C@H](CCCNC(=N)N)NC(C)=O)CSSC[C@@H](C(N)=O)NC(=O)[C@@H]2CCCN2C(=O)[C@H](CCCNC(=N)N)NC(=O)[C@H](Cc2ccc(O)cc2)NC(=O)[C@H](C(C)C)NC(=O)[C@H](CCCNC(=N)N)NC(=O)[C@@H](CC2CCCCC2)NC(=O)[C@H](CC(C)C)NC1=O [compound 16] |  | 0.1% | selectively active | EC50 (human MCH-1R): > 10 µM
CSCC[C@@H]1NC(=O)[C@@H](NC(=O)[C@H](CCCNC(=N)N)NC(C)=O)CSSC[C@@H](C(N)=O)NC(=O)[C@@H]2CCCN2C(=O)[C@H](CCCNC(=N)N)NC(=O)[C@H](Cc2ccc(O)cc2)NC(=O)[C@H](C(C)C)NC(=O)[C@H](CCCNC(=N)N[N+](=O)[O-])NC(=O)CNC(=O)[C@H](CC(C)C)NC1=O [compound 25] | 39% |  | selectively active | EC50 (human MCH-R2; Table 1, 293-AEQ17 cells): > 10000 nM; EC50 (human MCH-1R): > 1 µM
CSCC[C@@H]1NC(=O)[C@@H](NC(=O)[C@H](CCCNC(=N)N)NC(C)=O)CSSC[C@@H](C(N)=O)NC(=O)[C@@H]2CCCN2C(=O)[C@H](CCCNC(=N)N)NC(=O)[C@H](Cc2ccc(O)cc2)NC(=O)[C@H](C(C)C)NC(=O)[C@H](CCCNC(=N)N)NC(=O)[C@H](C)NC(=O)[C@H](CC(C)C)NC1=O [compound 7] | 97% | 104% |  | 
CSCC[C@@H]1NC(=O)[C@@H](NC(=O)[C@H](C)NC(=O)[C@H](CC(C)C)NC(=O)[C@H](CCSC)NC(=O)[C@H](CC(=O)O)NC(=O)[C@H](Cc2ccccc2)NC(=O)[C@@H](N)CC(=O)O)CSSC[C@@H](C(=O)N[C@@H](Cc2c[nH]c3ccccc23)C(=O)N[C@@H](CCC(N)=O)C(=O)N[C@H](C(=O)O)C(C)C)NC(=O)[C@@H]2CCCN2C(=O)[C@H](CCCNC(=N)N)NC(=O)[C@H](Cc2ccc(O)cc2)NC(=O)[C@H](C(C)C)NC(=O)[C@H](CCCNC(=N)N)NC(=O)CNC(=O)[C@H](CC(C)C)NC1=O [compound 46] (H-DFDMLACMLGRVYRPCWQV-OH; disulfide 7-16; N-terminus and C-terminus assumed) |  |  |  | MCH-2R Activation % (human MCH-R2; Table 3): 76%; MCH-1R Activation % (human MCH-1R; Table 3): 81%
CSCC[C@@H]1NC(=O)[C@@H](NC(=O)CCCCNC(=N)N)CSSC[C@@H](C(N)=O)NC(=O)[C@@H]2CCCN2C(=O)[C@H](CCCNC(=N)N)NC(=O)[C@H](Cc2ccc(O)cc2)NC(=O)[C@H](C(C)C)NC(=O)[C@H](CCCNC(=N)N)NC(=O)[C@@H](C)NC(=O)[C@H](CC(C)C)NC1=O [compound 34] ({Pentanoyl(5-guanidino)}-CML[dA]RVYRPC-NH2; disulfide 1-10) |  |  | selectively active | 
CSCC[C@@H]1NC(=O)[C@@H](NC(=O)[C@H](CCCNC(=N)N)NC(=O)[C@H](CC(C)C)NC(=O)[C@H](CCSC)NC(=O)[C@H](CC(=O)O)NC(=O)[C@H](Cc2ccccc2)NC(=O)[C@@H](N)CC(=O)O)CSSC[C@@H](C(=O)N[C@@H](Cc2c[nH]c3ccccc23)C(=O)N[C@@H](CCC(N)=O)C(=O)N[C@H](C(=O)O)C(C)C)NC(=O)[C@@H]2CCCN2C(=O)[C@H](CCCNC(=N)N)NC(=O)[C@H](Cc2ccc(O)cc2)NC(=O)[C@H](C(C)C)NC(=O)[C@H](C)NC(=O)CNC(=O)[C@H](CC(C)C)NC1=O [compound 49] (H-DFDMLRCMLGAVYRPCWQV-OH; disulfide 7-16; N-terminus and C-terminus assumed) |  |  |  | EC50 (human MCH-R2; Table 3): > 1000 nM; MCH-1R Activation % (human MCH-1R; Table 3): 24%
CSCC[C@@H]1NC(=O)[C@@H](NC(=O)[C@H](CCCNC(=N)N)NC(C)=O)CSSC[C@@H](C(N)=O)NC(=O)[C@@H]2CCCN2C(=O)[C@H](CCCNC(=N)N)NC(=O)[C@H](Cc2ccc(O)cc2)NC(=O)[C@H](C(C)C)NC(=O)[C@H](CCCNC(=N)N)NC(=O)[C@H](CO)NC(=O)[C@H](CC(C)C)NC1=O [compound 10] | 95% | 104% |  | 
CSCC[C@@H]1NC(=O)[C@@H](NC(=O)[C@H](CCCNC(=N)N)NC(=O)[C@H](CC(C)C)NC(=O)[C@H](CCSC)NC(=O)[C@H](CC(=O)O)NC(=O)[C@H](Cc2ccccc2)NC(=O)[C@@H](N)CC(=O)O)CSSC[C@@H](C(=O)N[C@@H](Cc2c[nH]c3ccccc23)C(=O)N[C@@H](CCC(N)=O)C(=O)N[C@H](C(=O)O)C(C)C)NC(=O)[C@@H]2CCCN2C(=O)[C@H](CCCNC(=N)N)NC(=O)[C@H](C)NC(=O)[C@H](C(C)C)NC(=O)[C@H](CCCNC(=N)N)NC(=O)CNC(=O)[C@H](CC(C)C)NC1=O [compound 51] (H-DFDMLRCMLGRVARPCWQV-OH; disulfide 7-16; N-terminus and C-terminus assumed) |  |  |  | EC50 (human MCH-R2; Table 3): > 1000 nM; MCH-1R Activation % (human MCH-1R; Table 3): 20%
CSCC[C@@H]1NC(=O)[C@@H](NC(=O)[C@H](CCCNC(=N)N)NC(C)=O)CSSC[C@@H](C(N)=O)NC(=O)[C@@H]2CCCN2C(=O)[C@H](CCCNC(=N)N)NC(=O)[C@H](Cc2ccc(O)cc2)NC(=O)[C@H](C(C)C)NC(=O)[C@H](CCCNC(=N)N)NC(=O)[C@H](CC(C)C)NC(=O)[C@H](CC(C)C)NC1=O [compound 8] | 80% | 106% |  | 
CSCC[C@@H]1NC(=O)[C@@H](NC(=O)[C@H](CCCNC(=N)N)NC(C)=O)CSSC[C@@H](C(N)=O)NC(=O)[C@@H]2CCCN2C(=O)[C@H](CCCNC(=N)N)NC(=O)[C@H](Cc2ccc(O)cc2)NC(=O)[C@H](C(C)C)NC(=O)[C@H](CCCNC(=N)N)NC(=O)C(C)(C)NC(=O)[C@H](CC(C)C)NC1=O [compound 11] | 104% | 22% | selectively active | EC50 (human MCH-R2; Table 1, 293-AEQ17 cells): 24 nM
CSCC[C@@H]1NC(=O)[C@@H](NC(=O)[C@H](CCCNC(=N)N)NC(C)=O)CSSC[C@@H](C(N)=O)NC(=O)[C@@H]2CCCN2C(=O)[C@H](CCCNC(=N)N)NC(=O)[C@H](Cc2ccc(O)cc2)NC(=O)[C@H](C(C)C)NC(=O)[C@H](CCCNC(=N)N)NC(=O)[C@@H](Cc2ccccc2)NC(=O)[C@H](CC(C)C)NC1=O [compound 17] | 102% | 5% | selectively active | EC50 (human MCH-R2; Table 1, 293-AEQ17 cells): 25 nM; EC50 (human MCH-1R): > 10 µM
